Values quoted from earlier work as cited in patent US10052352B2, “Therapeutic application of parenteral krill oil” (STABLE SOLUTIONS LLC, priority 2011, dated 2018).

Conditions: free acid

water solubility: highly water insoluble
Structure (SMILES): O=C(c1ccccc1)c1ccc2n1CCC2C(=O)O (stereo not shown) [ketorolac]
